From US8980933B2, “Combretastatin analogs for use in the treatment of cancer” (Universitat Bayreuth, priority 2010, dated 2015)
≈ marks a conversion by molar mass, not a printed value.

Assays:
[1] = test system: L929 fibroblasts; test: Cytotoxicity, L929; format: cell-based; details: Mus musculus, read-out: IC50 L-929
Experimental: (§1) The compounds 9a, 9b and 9c, which are exemplary compounds of formula (III) according to the present invention, as well as the reference compound 25f were tested in a similar manner.

[2] = test system: KB-3-1 cervix carcinoma; test: Cytotoxicity, KB-3-1; format: cell-based; details: Homo sapiens
Experimental: as §1

[3] = test system: PtK-2 opossum kidney cells; test: Cytotoxicity, PtK-2; format: cell-based; details: PtK2; PtK-2 opossum kidney cells (non-malign)
Experimental: as §1

[4] = test system: NHDF fibroblasts; test: Cytotoxicity, NHDF; format: cell-based; details: Homo sapiens; NHDF fibroblasts (non-malign)
Experimental: as §1

[5] = test system: HUVEC cells; test: Minimal inhibitory concentration in HUVEC; format: cell-based
Experimental: as §1

[6] = test system: H12.1 germ cell tumor, 1411HP germ cell tumor, A2780 ovarian carcinoma, HT29 colon carcinoma, DLD1 colon carcinoma, HCT8 colon carcinoma; test: SRB-cytotoxicity assay in a panel of tumor cell lines; format: cell-based, human; details: H12.1, 1411HP
Experimental: The cytotoxic activity of 5b was established by standard colorimetric tests (SRB- and MTT-assays) against various tumor cell lines of different entities. For the SRB cytotoxicity assay, dose-response curves of the testicular germ cell tumor cell lines exposed to drug concentrations of 0.001-10 μM were established using the sulforhodamine-B (SRB) microcuiture colorimetric assay (Papazisis et al. Optimization of the sulforhodamine B colorimetric assay. J. Immunol. Methods 1997, 208, 151-158) and performed as described in: Müller et al. Failure of activation of caspase-9 induces a higher threshold for apoptosis and cisplatin resistance in testicular cancer. Cancer Res. 2003, 63, 513-521. Briefly, cells were seeded into 96-well plates on day 0, at cell densities previously determined to ensure exponential cell growth during the period of the experiment. On day 1, cells were treated with the drugs dissolved in medium to give the appropriate concentrations for indicated times and the percentage of surviving cells relative to untreated controls was determined on day 5.
The compounds 5b, 6b, 5f and 6f as well as the reference compound 25f (Wang et al.) were furthermore subjected to an SRB-cytotoxicity assay in a panel of tumor cell lines (H12.1 germ cell tumor, 1411HP germ cell tumor, A2780 ovarian carcinoma, HT29 colon carcinoma, DLD1 colon carcinoma, HCT8 colon carcinoma).

[7] = test system: 1411HP germ cell tumor xenografts; test: Nude mouse xenograft model of resistant 1411HP; format: in vivo; details: 1411HP xenograft model
Experimental: In vivo antitumor activity and tolerability of compounds 5b and 6b of the invention were studied in a nude mouse xenograft model of the resistant germ cell tumor cell line 1411HP employing Athymic Nude-Fox n1 nu/nu mice (Harlan und Winkelmann, Borchen, Germany).
The tests were carried out as follows. The mice were kept under pathogen-free conditions, fed on an autoclaved standard diet and given free access to sterilized water. Each of five mice were administered a 150 μL phosphate buffered saline suspension of 10 million 1411HP cells into the left flank to generate subcutaneous xenograft tumors. After 4 weeks one group of two mice bearing 1411HP xenografts with a volume of ca. 1 cm^3 were injected i.p. with a single dose of 30 mg/kg body weight of 5b or 6b, respectively. Two mice in the second group with xenografts of a volume of ca. 2.5 cm^3 were injected i.p. with 20 mg/kg body weight of 5b on two consecutive days. Tumor volumes were calculated by caliper measurement using the formula a^2×b×0.5 with a being the short and b the long dimension. Body weight was assessed twice weekly and daily while under therapy.

[8] = test system: A2780 ovarian carcinoma xenografts; test: A2780 ovarian carcinoma xenograft model; format: in vivo, mouse
[9] = Toxicity / tolerability in mice; format: in vivo
Experimental: Prior to testing compound 5b, healthy animals of this type were treated with an ascending range of doses of 5b in order to establish a toxicity profile. […] Suitable dosages were then administered in further tests in a nude mouse xenograft model of a pair of germ cell tumor cell lines, the chemoresistant cell line 1411HP and the chemosensitive cell line H12.1. These cell lines retain their individual in vitro chemosensitivities to cisplatin when grown as xenograft tumors and so may serve as a model of the clinical situation of resistance to chemotherapy (Mueller et al. Cancer Res. 2003; Mueller et al. Tumor Biol. 2006).
Compounds 5b, 6b and 6f were also tested in terms of feasibility of oral administration. Mice received a single dose of 40 mg/kg body weight of 5b, 6b or 6f, respectively. […] Then compounds 6b or 6f were given peroral as dual-dose application on two consecutive days in accordance to the i.p. treatment scheme used for the regression trials but with a 2-fold higher dose of 2×40 mg/kg body weight.

Compound	IC50 [1]	IC50 [2]	IC50 [3]	IC50 [4]	minimal inhibitory concentration (MIC) HUVEC [5]	in vitro cytotoxicity compared to 25f [6]	vascular disrupting effect [7]	vascular disrupting effect [8]	toxicity after oral administration ([9]; peroral dual-dose 2×40 mg/kg on two consecutive days)	toxicity after oral administration ([9]; single dose 40 mg/kg oral)	toxicity after oral administration ([9]; single dose 60 mg/kg peroral)
COc1ccc(-c2ncn(C)c2-c2cc(Br)c(OC)c(OC)c2)cc1F [9a, 1-Methyl-5-(3-bromo-4,5-dimethoxyphenyl)-4-(3-fluoro-4-methoxyphenyl)imidazole]	24 nM	4.4 nM	437 nM	175 nM	0.109 µM (≈ 0.0459 µg/mL)	–	–	–	–	–	–
CCOc1ccc(-c2c(-c3cc(Cl)c(OC)c(OC)c3)ncn2C)cc1N [compound 5f, 1-methyl-5-(3-amino-4-ethoxyphenyl)-4-(3-chloro-4,5-dimethoxyphenyl)-imidazole]	–	–	–	–	–	further improvement of cytotoxicity	vascular disrupting activity	vascular disrupting activity	–	–	–
CCOc1ccc(-c2c(-c3cc(Br)c(OC)c(OC)c3)ncn2C)cc1N [compound 6f, 1-methyl-5-(3-amino-4-ethoxyphenyl)-4-(3-bromo-4,5-dimethoxyphenyl)-imidazole]	–	–	–	–	–	further improvement of cytotoxicity	vascular disrupting activity	vascular disrupting activity	no signs of toxicity were observed	No signs of toxicity were observed	tolerated symptom-free
